Data: the supplement of paper PMC4932681

Experiments:
[1] = tested on: BT-474 Tam1; experiment: relative IC50 (midpoint of fitted logistic curve, plateau may be below 50% inhibition; CellTiter-Glo viability); higher = less potent; settings: 4-OH-tamoxifen in medium 1 µM; 72 h
Procedure, shortened: (§1)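 Breast cancer cell lines and their resistant derivatives were seeded into 384-well plates containing library drugs at five concentrations across a 10 000-fold range, with resistant lines kept in medium with 1 μM of the selecting drug. After 72 h at 37 °C, CellTiter-Glo viability was read on a PHERAstar and normalised to vehicle-only and positive controls. Logistic dose–response fits in the Breeze pipeline gave drug sensitivity score, relative IC50 (curve midpoint) and top-dose inhibition.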

[2] = tested on: T-47D Tam2; experiment: as above; settings: 4-OH-tamoxifen in medium 1 µM; 72 h
Procedure, shortened: as §1

[3] = tested on: ZR-75-1 Tam2; experiment: as above; settings: 4-OH-tamoxifen in medium 1 µM; 72 h
Procedure, shortened: as §1

[4] = tested on: BT-474; experiment: as above; settings: 72 h
Procedure, shortened: as §1

[5] = tested on: T-47D Tam1; experiment: as above; settings: 4-OH-tamoxifen in medium 1 µM; 72 h
Procedure, shortened: as §1

[6] = tested on: ZR-75-1; experiment: as above; settings: 72 h
Procedure, shortened: as §1

[7] = tested on: T-47D; experiment: as above; settings: 72 h
Procedure, shortened: as §1

[8] = tested on: MCF-7; experiment: as above; settings: 72 h
Procedure, shortened: as §1

[9] = tested on: BT-474 Tam2; experiment: as above; settings: 4-OH-tamoxifen in medium 1 µM; 72 h
Procedure, shortened: as §1

[10] = tested on: BT-474 Tam1; experiment: drug sensitivity score (DSS) (DSS (dimensionless)); higher = more sensitive; extreme values may be limits of the assay; settings: 4-OH-tamoxifen in medium 1 µM; 72 h
Procedure, shortened: as §1

[11] = tested on: T-47D Tam2; experiment: as above; settings: 4-OH-tamoxifen in medium 1 µM; 72 h
Procedure, shortened: as §1

[12] = tested on: MCF-7 Tam1; experiment: as above; settings: 4-OH-tamoxifen in medium 1 µM; 72 h
Procedure, shortened: as §1

[13] = tested on: ZR-75-1 Tam2; experiment: as above; settings: 4-OH-tamoxifen in medium 1 µM; 72 h
Procedure, shortened: as §1

[14] = tested on: BT-474; experiment: as above; settings: 72 h
Procedure, shortened: as §1

[15] = tested on: ZR-75-1 Tam1; experiment: as above; settings: 4-OH-tamoxifen in medium 1 µM; 72 h
Procedure, shortened: as §1

[16] = tested on: T-47D Tam1; experiment: as above; settings: 4-OH-tamoxifen in medium 1 µM; 72 h
Procedure, shortened: as §1

[17] = tested on: ZR-75-1; experiment: as above; settings: 72 h
Procedure, shortened: as §1

[18] = tested on: T-47D; experiment: as above; settings: 72 h
Procedure, shortened: as §1

[19] = tested on: MCF-7; experiment: as above; settings: 72 h
Procedure, shortened: as §1

[20] = tested on: BT-474 Tam2; experiment: as above; settings: 4-OH-tamoxifen in medium 1 µM; 72 h
Procedure, shortened: as §1

[21] = tested on: ZR-75-1 Tam1; experiment: relative IC50 (midpoint of fitted logistic curve, plateau may be below 50% inhibition; CellTiter-Glo viability); higher = less potent; settings: 4-OH-tamoxifen in medium 1 µM; 72 h
Procedure, shortened: as §1

Structure (SMILES)	relative IC50 [1] [µM]	relative IC50 [2] [µM]	relative IC50 ([4]; 4-OH-tamoxifen in medium 1 µM) [µM]	relative IC50 [5] [µM]	relative IC50 ([7]; 4-OH-tamoxifen in medium 0 µM) [µM]	relative IC50 ([7]; 4-OH-tamoxifen in medium 1 µM) [µM]	relative IC50 ([8]; 4-OH-tamoxifen in medium 0 µM) [µM]	relative IC50 ([8]; 4-OH-tamoxifen in medium 1 µM) [µM]	relative IC50 [9] [µM]	relative IC50 ([4]; 4-OH-tamoxifen in medium 0 µM) [µM]	relative IC50 [3] [µM]	relative IC50 ([6]; 4-OH-tamoxifen in medium 0 µM) [µM]	drug sensitivity score [10]	drug sensitivity score [11]	drug sensitivity score [12]	drug sensitivity score [13]	drug sensitivity score ([14]; 4-OH-tamoxifen in medium 0 µM)	drug sensitivity score ([14]; 4-OH-tamoxifen in medium 1 µM)	drug sensitivity score [15]	drug sensitivity score [16]	drug sensitivity score ([17]; 4-OH-tamoxifen in medium 0 µM)	drug sensitivity score ([17]; 4-OH-tamoxifen in medium 1 µM)	drug sensitivity score ([18]; 4-OH-tamoxifen in medium 0 µM)	drug sensitivity score ([18]; 4-OH-tamoxifen in medium 1 µM)	drug sensitivity score ([19]; 4-OH-tamoxifen in medium 0 µM)	drug sensitivity score ([19]; 4-OH-tamoxifen in medium 1 µM)	drug sensitivity score [20]	relative IC50 [21] [µM]	relative IC50 ([6]; 4-OH-tamoxifen in medium 1 µM) [µM]
NC1(c2ccc(-c3nc4ccn5c(=O)[nH]nc5c4cc3-c3ccccc3)cc2)CCC1 [MK-2206]	0.17	0.111	0.335	0.101	0.114	0.177	0.315	0.119			0.0782	0.0736	4.04	5.54	2.56	7.96	1.68	2.54	7.57	5.11	6.86	7.22	5.76	2.9	1.67	4.73	0.553	0.0685	0.0546
O=C(CCCCCCC(=O)Nc1ccc([C@H]2O[C@@H](CSc3nc(-c4ccccc4)c(-c4ccccc4)o3)C[C@@H](c3ccc(CO)cc3)O2)cc1)NO [Tubacin]		3.71	3.38	1.84	3.43	3.71	1.36	1.86	3.84				0.976	1.62	0.69	0.331	1.29	4.44	1.41	3.65	0.333	0.912	2.87	4.31	5.52	5.63	1.25	3.35	
CC(C)C[C@@H](C(=O)N[C@H](C(=O)OC1CCCC1)c1ccccc1)[C@H](O)C(=O)NO [Tosedostat (CHR 2797)]	1.19	0.85	1.25	0.768	3.24		0.939	1.35			0.242		3.46	5.12	0	5.85	4	5.75	2.61	5.48	4.86	3.37	1.5	0.354	3.93	3.62	1.07	0.829	
Nc1ccccc1NC(=O)c1ccc(CNc2nccc(-c3cccnc3)n2)cc1 [Mocetotinostat (MGCD0103)]	2.15	1.39	1.38	0.688	3.29	3.22	1.76	2	1.21	2.06	1.48	2.72	7.26	3.42	0.799	2.62	5.13	9.43	2.33	6.2	1.76	1.86	4.36	4.03	6.98	4.99	8.98		

Further lines, with some results ahead:

relative IC50 [1] [µM]	relative IC50 [2] [µM]	relative IC50 ([4]; 4-OH-tamoxifen in medium 1 µM) [µM]	relative IC50 [5] [µM]	relative IC50 ([7]; 4-OH-tamoxifen in medium 0 µM) [µM]	relative IC50 ([7]; 4-OH-tamoxifen in medium 1 µM) [µM]	relative IC50 ([8]; 4-OH-tamoxifen in medium 0 µM) [µM]	relative IC50 ([8]; 4-OH-tamoxifen in medium 1 µM) [µM]	relative IC50 [9] [µM]	relative IC50 ([4]; 4-OH-tamoxifen in medium 0 µM) [µM]	Structure (SMILES)	relative IC50 [3] [µM]	relative IC50 ([6]; 4-OH-tamoxifen in medium 0 µM) [µM]	drug sensitivity score [10]	drug sensitivity score [11]	drug sensitivity score [12]	drug sensitivity score [13]	drug sensitivity score ([14]; 4-OH-tamoxifen in medium 0 µM)	drug sensitivity score ([14]; 4-OH-tamoxifen in medium 1 µM)	drug sensitivity score [15]	drug sensitivity score [16]	drug sensitivity score ([17]; 4-OH-tamoxifen in medium 0 µM)	drug sensitivity score ([17]; 4-OH-tamoxifen in medium 1 µM)	drug sensitivity score ([18]; 4-OH-tamoxifen in medium 0 µM)	drug sensitivity score ([18]; 4-OH-tamoxifen in medium 1 µM)	drug sensitivity score ([19]; 4-OH-tamoxifen in medium 0 µM)	drug sensitivity score ([19]; 4-OH-tamoxifen in medium 1 µM)	drug sensitivity score [20]	relative IC50 [21] [µM]	relative IC50 ([6]; 4-OH-tamoxifen in medium 1 µM) [µM]
3.35	3.23	3.64	1.78	3.57	3.46	1.54	3.77	2.57		Cc1ccc(NC(=O)c2ccc(CN3CCN(C)CC3)cc2)cc1Nc1nc(-c2cccnc2)cs1 [Masitinib]	2.58	> 10	4.94	1.99	1.1	1.85	0.359	3.44	0.886	2.68	0	0.352	1.85	2.81	3.51	1.67	5.8		
2.11	1.45		1.32	1.9		1.54	1.32			OC[C@H]1O[C@@H](n2cnc3c2N=CNC[C@H]3O)C[C@@H]1O [Pentostatin]	1.31	1.58	1.97	3.19	0.721	3.72	0.324	0.0318	2.62	4.83	4.39	3.83	3.58	2.45	4.26	2.79	0.106	2.93	1.14
	1.94	1.85	> 10		> 10	2.77		> 10		O=C(NC[C@H](O)CO)c1ccncc1Nc1ccc(I)cc1F	> 10	> 10	0.041	2.47	0.0844	0	0.702	3.92	0	0	0	0	0	0	1.94	1.22	0	> 10	
3.45	1.11	2.23	0.995	0.306	0.697	2.13			2.13	COc1cc([C@@H]2c3cc4c(cc3[C@@H](O[C@@H]3O[C@@H]5CO[C@@H](c6cccs6)O[C@H]5[C@H](O)[C@H]3O)[C@H]3COC(=O)[C@H]23)OCO4)cc(OC)c1O [Teniposide]	0.737	0.703	3.14	4.73	0.273	5.1	4.07	6.48	3.15	8.66	4.91	3.3	9.21	4.79	4.14	2.91	0.0097	1.6	1.07
